Earlier results, collected in patent US4775679A, “Certain heterocyclic-ethyl-2,3-dihydrobenzofurans useful as anti-inflammatory agents” (Merck & Co., Inc., priority 1987, dated 1988).

Test system: inflammatory responses elicited by topically applied phorbol myristate acetate (PMA) or archidonic acid (AA)

Structure (SMILES) | active in this assay (topical mouse ear), previously established
COc1ccc2c(c1)c(CC(=O)O)c(C)n2C(=O)c1ccc(Cl)cc1 [Indomethacin] | active
C[C@@H]1C[C@H]2[C@@H]3CCC4=CC(=O)C=C[C@]4(C)[C@@]3(F)[C@@H](O)C[C@]2(C)[C@@]1(O)C(=O)CO [dexamethasone] | active
